Measurements as given in patent US20110293658A1, “USE OF INKT OR TLR AGONISTS FOR PROTECTING AGAINST OR TREATING A DISEASE SUCH AS ACUTE INFECTION OR CANCER” (LUDWIG INSTITUTE FOR CANCER RESEARCH LTD., priority 2008, published 2011).
“And” between values parts separate entries of the source, which are not always exact repeats. Equal entries are not always repeated.

Tests used:
[1] = test system: BM derived MDSC; assay: OT-I proliferation assay with BM derived MDSC; assay type: cell-based, mouse; conditions: MDSC pulsed with α-GalCer in the presence of BM resident iNKT cells from WT mice
[2] = test system: ARG1; assay: ARG1 activity of α-GalCer pulsed MDSC (urea release); assay type: cell-based, mouse; conditions: MDSC pulsed with 100 ng α-GalCer in the presence of iNKT cells
Procedure: (§1) (A) Loss of ARG1 and NOS2 activity in α-GalCer pulsed MDSC incubated with BM derived iNKT cells. MDSC were treated with α-GalCer in the presence of iNKT cells and collected at different time points. ARG1 and NOS2 activities were measured using a colorimetric assay to evaluate urea and nitrate/nitrite release, respectively (De Santo et al. 2005. Proc Natl Acad Sci USA 102:4185-4190. Serafini et al. 2006. J Exp Med 203:2691-2702). An ELISA was used to evaluate IL-12p40 production. Values are shown as a percentage of time point 0. The maximum amount of urea released by untreated MDSC (1×10^6) was 91.7 μg. The maximum amount of […] measured in the supernatant of untreated MDSC was 120 μM. The maximum amount of IL-12p40 was 200 ng/ml.
(§2) Measuring activity of MDSC enzymes. ARG1 and NOS2 activities of α-GalCer pulsed BM-derived MDSC co-cultured with BM derived iNKT cells were assessed at different time points. NOS2 activity was measured from supernatants by Griess reaction, as the amount of NO3- and NO2-produced using a nitrate/nitrite assay kit (Cayman Chemicals) (Proc Natl Acad Sci USA 102:4185-4190). ARG1 activity was measured in cell lysates, as previously described (Proc Natl Acad Sci USA 102:4185-4190).

[3] = test system: NOS2; assay: NOS2 activity of α-GalCer pulsed MDSC (nitrate/nitrite release); assay type: cell-based, mouse; conditions: MDSC pulsed with 100 ng α-GalCer in the presence of iNKT cells
Procedure: as §1, §2

[4] = test system: IL-12p40; assay: IL-12p40 production by MDSC (ELISA); assay type: cell-based, mouse; conditions: MDSC pulsed with 100 ng α-GalCer in the presence of iNKT cells
[5] = test system: IL-23 and IL-12p70; assay: IL-23 and IL-12p70 secretion by α-GalCer pulsed MDSC; assay type: cell-based, mouse; conditions: MDSC pulsed with α-GalCer in the presence of iNKT cells; data not shown
[6] = test system: BM derived MDSC; assay: iNKT cell dependent lysis of α-GalCer pulsed MDSC; assay type: cell-based, mouse; conditions: MDSC pulsed with 100 ng of α-GalCer
Procedure: CFSE labelled BM derived MDSC were either pulsed or not pulsed with α-GalCer and incubated with CD11c and Gr-1 depleted BM cultures, which contain iNKT cells.

[7] = test system: BM derived MDSC; assay: Phenotypic analysis of treated MDSC (FACS); assay type: cell-based, mouse
[8] = test system: CD11b+ cells from IAV infected individuals; assay type: cell-based, human; conditions: α-GalCer 100 ng/ml in presence of iNKT cells at MDSC:iNKT ratio 1:0.25, or ARG1 and NOS2 inhibitors; DC:CD11b+ 1:1
[9] = test system: human MDSC; assay: iNKT cell dependent killing of α-GalCer pulsed human MDSC (Propidium Iodide); assay type: cell-based; conditions: α-GalCer 100 ng/ml, MDSC:iNKT cell ratio of 1:0.25, 24 h
Procedure: (B) Conditions to prevent lysis of α-GalCer pulsed human MDSC by iNKT cells. Human MDSC (0.5×10^6) were treated with α-GalCer (100 ng/ml) and co-cultured with increasing numbers of iNKT cells for 24 h. MDSC were stained with Propidium Iodide to calculate the percentage of iNKT cell dependent MDSC killing.

[10] = test system: iNKT cells; assay: IFN-γ release from iNKT cells incubated with α-GalCer pulsed CD11b+ cells; assay type: cell-based, human; conditions: α-GalCer pulsed CD11b+ cells from IAV infected patients, 24 h
Procedure: (C) iNKT cells are activated by α-GalCer pulsed CD11b^+ cells from IAV infected patients. IFN-γ release from iNKT cells incubated for 24 h with α-GalCer pulsed CD11b^+ cells, derived from the IAV infected patients and healthy controls described in FIG. 7. Data represent the average of 3 replicates ±S.D.

[11] = test system: EG7 cells (EL4 tumor cell line transfected with ovalbumin cDNA); parameters: species or system C57 BL/6 mice; conditions: mouse, in vivo, iv
[12] = test system: CD11bCD15 positive cells; assay: Melan-A priming experiments with CD11bCD15 positive cells from melanoma patients; assay type: cell-based, human; conditions: CD11bCD15 positive cells pulsed with alphaGalCer 100 ng or Threitolceramide 200 ng
Procedure: CD11bCD15 positive cells were pulsed with either alphaGalCer (100 ng) or Threitolceramide (200 ng) for 2 hours and then incubated with autologous iNKT cells overnight before adding autologous DC pulsed with Melan-A26-35 peptide and autologous CD11bCD15 cell depleted total leukocytes.
Experiments in FIG. 29 were carried out using the same conditions as shown in the right column of FIG. 28 (i.e. in the presence of iNKT cells and alphaGalCer pulsed CD11bCD15 positive cells) in the presence of either blocking anti CD1d (middle column) or blocking anti CD40 (right column) antibodies.
In order to assess whether secretion of IL-10 is contributing to the suppressive activity of CD11bCD15 positive cells, expansion of Melan-A26-35 specific T cell responses as assessed in the presence or absence of blocking anti 11-10 receptor antibodies. In the left hand panel of FIG. 31, expansion of Melan-A26-35 specific T cells was assessed using total leukocytes from which CD11b-CD15+ cells were removed (2.33%). Addition of CD11bCD15 positive cells reduced the frequency of Melan-A26-35 specific T cells (0.83%) (central panel).
Purification of CD11b/CD15+ cells. Since CD15 CD11b positive cells have granulocyte density, it is important to purify them without using density gradients, such as Ficol. Red blood cells are lysed from whole blood, using red lysis cell buffer and anti CD11b/CD15 specific antibodies are added to the leukocytes for FACS guided cell sorting.
Melan-A priming experiments. DCs were generated by culturing monocytes for 4 days in RPMI/10% FCS supplemented with 50 ng/ml GM-CSF (Pepro-tech) and 1,000 U/ml IL-4 (Salio, M., et al. 2007. Proc. Natl. Acad. Sci. U.S.A. 104:20490-20495). […] After 2 weeks, cells were stained with HLA-A2 tetramers loaded with melan-A26-35 peptide and anti CD8.
Harnessing iNKT cells. The protocol to purify Cdl lbCd15 cells and differentiate DC is similar to the protocol described earlier. Cdl lbCd15 cells were pulsed with either alphaGalCer (100 ng) or with threitolceramide (200 ng) and then incubated with iNKT cells for 12 hours. Cells were then washed pulsed with the melan-A26-35 peptide and incubated with total leukocytes. After 2 weeks in culture, cells were stained with HLA-A2 melan-A tetramers and anti-CD8 antibodies.

CCCCCCCCCCCCCCCCCCCCCCCCCC(=O)N[C@@H](CO[C@H]1O[C@H](CO)[C@H](O)[C@H](O)[C@H]1O)[C@H](O)[C@H](O)CCCCCCCCCCCCCC [α-GalCer, α-Galactosylceramide]
MDSC suppression of CFSE labelled OT-I proliferation [1]: completely relieved
ARG1 activity [2]: reduction
NOS2 activity [3]: reduction
secretion of IL-12 p40 [4]: enhanced secretion
secretion of IL-23 and IL-12p70 [5]: No secretion
lysis of pulsed MDSC by iNKT cells [6]: not lysed
differentiation of CD11c- MDSC (CD11c expression) ([7]; CFSE labelled α-GalCer pulsed MDSC incubated with iNKT cells, 48 h): differentiation into CD11c^+ cells
CD86 and MHC class II expression ([7]; α-GalCer pulsed MDSC incubated with iNKT cells, data not shown): up-regulation
suppressive activity of CD11b+ cells collected from IAV infected individuals (MLR proliferation) [8]: could be reduced
iNKT cell dependent MDSC lysis [9]: did not cause iNKT cell dependent MDSC lysis
activation of iNKT cells (IFN-γ release) [10]: activated
frequency of MDSCs (CD11b+Gr1+ positive cells) [11]: lower frequency
frequency of Ova specific T cell responses (H-2Kb tetramer staining) [11]: higher frequency
tumor size / tumor regression [11]: Tumour regression
frequency of Melan-A26-35 specific T cells ([12]; in the absence of added iNKT cells, unpulsed 0.34%): 0.32%
frequency of Melan-A26-35 specific T cells ([12]; with addition of autologous iNKT cells): 3.05% and 6.42%
